Results as given in patent US20180125795A1, “[…] COMPOSITIONS AND METHODS” (ThermoLife International, LLC, priority 2017, published 2018).

Test system: human subject
Assay: Post-exercise recovery (whole-body oxygen consumption)
Format: in vivo
Procedure: The administration of cinnamaldehyde promotes post-exercise recovery by reducing the time for a subject's oxygen consumption level (VO2) to return to his or her pre-exercise level when cinnamaldehyde is administered after exercise. In these implementations, cinnamaldehyde is administered with a protein and/or a carbohydrate. The protein may be any protein commonly used in nutritional supplement manufacture, which includes but is not limited to whey protein, milk protein, casein protein, beef protein, soy protein, hemp protein, rice protein, canola protein, spirulina, and pea protein. The carbohydrate may by any commonly used form of simple or complex carbohydrates used in the manufacture of dietary supplements, which includes but is not limited glucose, fructose, dextrose, palatinose, maltodextrin, various starches, activated barley, waxy maize, cereals, and oats. In a preferred embodiment, cinnamaldehyde is administered to the human subject within two hours of completion of exercise, for example within 90 minutes, 60 minutes, or 30 minutes of completion of exercise.
The effect of cinnamaldehyde on promoting post-exercise exercise is best when cinnamaldehyde is administered within an hour after exercise and its effect is reduced when administered two hours after exercise. The effect of cinnamaldehyde on promoting post-exercise exercise is enhanced when it is administered with a protein and/or a carbohydrate (for example, a combination of whey powder and glucose).

With `O=CC=Cc1ccccc1` [cinnamaldehyde] the “time for whole-body oxygen consumption to return to pre-exercise levels” value (administered after the human subject completed an exercise session) was “reduced the time”, the “effect on promoting post-exercise recovery” value (from here on “effect”) (administered two hours after exercise) was “reduced” and the “effect” value (administered with a protein and/or a carbohydrate (e.g. whey powder and glucose)) was “enhanced”. The “effect” value (administered within an hour after exercise) was “best”.
